{"source": "paper PMC6290777", "about": "“Inhalation of the prodrug PI3K inhibitor CL27c improves lung function in asthma and fibrosis” (Nature Communications, 2018)", "key": {"[1]": {"system": "OVA-induced acute allergic asthma", "test": "OVA-induced acute allergic asthma model", "type": "in vivo, BALB/c mice", "description": "On Days 1 and 14, BALB/c mice (6–8 weeks) received an intraperitoneal injection (i.p.) of a solution containing 0.5 mg/ml OVA and 5 mg/ml Alum (described in Fig. 2). Untreated controls were injected with a solution of 5 mg/ml Alum. […] Untreated control groups included mice challenged with PBS alone. On day 29, mice were sacrificed, and samples were collected for further analysis.\nBALF was performed to obtain leukocytes from alveolar space. The trachea was exposed and a 1.7-mm-outside-diameter polyethylene catheter was inserted. BAL was performed by washing the lungs three-times with three different 500 µl aliquots of PBS. BALF samples were centrifuged at 600 × g for 10 min at 4 °C on a histology glass slide and stained with Diff Quick (MICROPTIC, #DQ-ST). The number of leukocytes and differential counts of different population were obtained evaluating the percentage leukocyte populations over the total cell number.\nIL-5, IL-13, eotaxin, TGF-β, KC, IL-17A, and MCP-1 levels in the BALF and anti-OVA IgE levels in serum were measured by ELISA technique using commercial DuoSet kits R&D Systems according to the instructions of the manufacturer. Results were expressed in levels of cytokines per ml of […] (pg/ml) or arbitrary units (A.U.).\nImmunohistochemistry for CD18 was performed using the streptavidin-biotin-peroxidase method in formalin-fixed, paraffin-embedded tissue sections (5 µm thick) mounted on poly-L-lysine-coated microscope slides. Lung cross-sections were deparaffinized and rehydrated through xylene and graded alcohols. After antigen retrieval, endogenous peroxidase was blocked (15 min) with 3% (v/v) hydrogen peroxide and washed in phosphate-buffered saline (PBS). Sections were incubated overnight (4 °C) with primary rabbit anti-CD18 antibody (Acris Antibodies GmbH, Germany, Cat. Number B0842-1) diluted 1:400 in PBS plus bovine serum albumin (PBS-BSA) or rabbit anti/PAkt (S473) diluted 1:100 in PBS/BSA. The slides were then incubated with biotinylated goat anti-rabbit antibody (Dako Agilent Pathology Solution, USA) diluted 1:1000 in PBS/BSA. After washing, the slides were incubated with avidin-biotin-horseradish peroxidase conjugate (Dako Agilent Pathology Solution, USA) for 30 min, according to the manufacturer’s instructions. CD18 and PAkt-positive cells were visualized with the chromogen 3,3′-diaminobenzidine (DAKO liquid DAB + substrate chromogen system, CA, USA). Slides were counterstained with Harry’s hematoxylin, dehydrated in a graded alcohol series, cleared in xylene, and cover slipped.\nLung, liver, and heart samples were collected for western blot detection of akt phosphorilation levels. Protein samples were resolved by 10% SDS-PAGE and transferred on to PVDF (Immobilon™-P) membranes. The membranes were blocked with 5% BSA in 1x TBS with 0.3% Tween 20 for 30 min at […]. Then, the membranes were incubated overnight at 4 °C with primary antibodies (phosphorylated Akt serine 473, 1:1000, Cell Signaling Technology, Cat. Number 4060) and 1 h with HRP-conjugated secondary antibody (1:10000). The blots were visualized in ECL solution for 1 min and images were captured on Luminescent Image Analyser (ChemiDoc Imaging Systems, Bio-Rad Laboratories, USA). For loading control, the blots were striped and reassessed with pan Akt (1:1000) antibody. For quantification, specific phosphorylation was calculated as the ratio of signals for phosphorylated Akt to the signal of total Akt detected. Values of unstimulated samples were set to 1.0. Uncropped scans of the most important blots are provided as a supplementary figure in the Supplementary Information (Supplementary Fig. 15)."}, "[2]": {"system": "bleomycin-induced lung fibrosis", "test": "Bleomycin-induced lung injury and fibrosis in mice", "type": "in vivo, C57BL/6J mice", "description": "Eight-to-ten-week-old C57BL/6J males were used in bleomycin-induced lung injury and fibrosis model[10],[51]. Briefly, a single 40 µl injection containing 3.75 or 2 mg/kg of bleomycin sulfate (Sigma Aldrich-MERCK #B1141000) diluted in PBS or PBS only (vehicle) was instilled intratracheally. […]\nLevels of hydroxyproline in lung tissues were measured using the Hydroxyproline Assay kit (Sigma-Audrich, St. Louis, MO, USA) according to the manufacturer’s instructions. Briefly, 10 mg of pulverized frozen lungs homogenized in 100 µL of concentrated hydrochloric acid (HCl, 12 M), and hydrolyzed at 120 °C for 3 h. Then, 5 µL of each sample in triplicate were used to the assay. […] The absorbance was obtained at 560 nm. The final results are expressed as concentration of hydroxyproline in µg/mL.\nThe left lung was removed and fixed in 4% neutral phosphate-buffered formalin (pH 7.4)[10]. The tissues were dehydrated gradually in ethanol, embedded in paraffin, cut into 4 µm sections, stained with H&E, Gomori’s trichrome and periodic acid schiff (PAS), and examined under light microscopy by a pathologist in a double blinded manner. Images of lung sections were captured with a digital camera (Optronics DEI-470) connected to a microscope (Olympus IX70) with a magnification of ×40 or ×100. Inflammation was scored according to modification of existing protocols[53] and to the histopathology criteria reported in Supplementary Table 4. […]\nFor quantitative measurements, total RNA was extracted from lung tissues using the High Pure RNA isolation kit (Invitrogen, Life Technologies, Paisley, UK) and reverse-transcribed with the Superscript first-strand synthesis system kit (Invitrogen, Life Technologies, Paisley, UK). Specific mRNA sequences were quantified by real-time PCR with primer/probe combinations based on the Roche Universal ProbeLibrary Set, Mouse (Tgfb1 probe: #72, Ctgf probe: #71, Col1a1 probe: #15 and Mmp2 probe #49). Primer sequences are listed in Supplementary Table 5."}, "[3]": {"details": "late treatment, day 17 to day 27"}, "[4]": {"details": "moderate model, bleomycin 2 mg/kg, aerosolized CL27c 2 mg/ml"}, "[5]": {"details": "moderate model, therapeutic aerosolized CL27c"}, "[6]": {"details": "severe model, bleomycin 3.75 mg/kg"}}, "data": [{"compound": "COC(=O)c1cccc(Cn2cc(-c3cccc4c(=O)cc(N5CCOCC5)[nH]c34)nn2)c1", "note": "[CL27c]", "values": [{"measurement": "TGF-β in lung tissue lysates", "setting": "[1]; OVA-challenged mice as described in Fig. 2, inhaled CL27c", "value": "reduction of transforming growth factor-β (TGF-β) and IL-13 to the level detected in unsensitized controls"}, {"measurement": "IL-10 in lung tissue lysates", "setting": "[1]; OVA-challenged mice as described in Figure 2, inhaled CL27c", "value": "increased pulmonary abundance of IL-10"}, {"measurement": "efficacy on OVA-induced acute asthma", "setting": "[1]; highest dose, 20 mg/ml", "value": "inconsistent outcomes"}, {"measurement": "IL-5 and IL-13 levels in lung tissue", "setting": "[1]; inhaled CL27c 2 mg/ml", "value": "restored both IL-5 and IL-13 to the levels detected in unsensitized control mice"}, {"measurement": "reduction of eosinophils accumulation in BALF", "setting": "[1]; inhaled CL27c 2 mg/ml", "value": 70, "unit": "%"}, {"measurement": "reduction of lymphocytes accumulation in BALF", "setting": "[1]; inhaled CL27c 2 mg/ml", "value": 72, "unit": "%"}, {"measurement": "reduction of macrophages accumulation in BALF", "setting": "[1]; inhaled CL27c 2 mg/ml", "value": 60, "unit": "%"}, {"measurement": "reduction of neutrophils accumulation in BALF", "setting": "[1]; inhaled CL27c 2 mg/ml", "value": 68, "unit": "%"}, {"measurement": "Akt phosphorylation in lung lysates and sections", "setting": "[1]; inhaled CL27c 2 mg/ml, day 29", "value": "decrease in Akt phosphorylation"}, {"measurement": "CD18-positive leukocyte recruitment to the lung", "setting": "[1]; inhaled CL27c 2 mg/ml, immunohistochemistry", "value": "reduced leukocyte recruitment"}, {"measurement": "efficacy on OVA-induced acute asthma", "setting": "[1]; lowest dose, 0.2 mg/ml", "value": "no efficacy"}, {"measurement": "Akt phosphorylation in lung protein extracts and sections", "setting": "[2]; bleomycin model", "value": "blunted the increase of Akt phosphorylation"}, {"measurement": "lung function", "setting": "[2]; [3]", "value": "improved lung function"}, {"measurement": "mortality", "setting": "[2]; [3]", "value": "significantly blunts mortality"}, {"measurement": "fibrotic collagen deposition", "setting": "[2]; late treatment, day 17 to day 27 after bleomycin 2 mg/kg", "value": "still effective in reducing fibrotic collagen deposition"}, {"measurement": "lung elasticity (pulmonary compliance) restored, relative to controls", "setting": "[2]; moderate model", "value": "75 % of controls"}, {"measurement": "lung resistance", "setting": "[2]; moderate model", "value": "reduce the gain in lung resistance almost to the level of healthy mice"}, {"measurement": "survival", "setting": "[2]; moderate model, 22 days after instillation, bleomycin alone 50% mortality", "value": 100, "unit": "%"}, {"measurement": "fibrotic remodeling (Ashcroft score, collagen content)", "setting": "[2]; moderate model, bleomycin 2 mg/kg", "value": "significantly reduce fibrotic remodeling"}, {"measurement": "abundance of active TGF-β1", "setting": "[2]; [4]", "value": "significantly decreased the abundance of active TGF-β1"}, {"measurement": "mRNA levels of Tgfb1, Ctgf, Col1a1, Mmp2", "setting": "[2]; [4]", "value": "attenuated mRNA levels of Tgfb1"}, {"measurement": "neutrophil-derived MPO levels in the lungs", "setting": "[2]; [4]", "value": "markedly reduced"}, {"measurement": "airway inflammation (BALF cells)", "setting": "[2]; moderate model, bleomycin 2 mg/kg, aerosolized CL27c 2 mg/ml day 10 to 21", "value": "markedly reduced airway inflammation"}, {"measurement": "histopathological inflammation score", "setting": "[2]; moderate model, day 22", "value": "significantly attenuated in airways, vasculature, and parenchyma"}, {"measurement": "TLC, inspiratory capacity, forced vital capacity, and FEV", "setting": "[2]; [5]", "value": "significant recovery back to normal levels"}, {"measurement": "pressure–volume curve", "setting": "[2]; [5]", "value": "significantly improved the pressure–volume curve"}, {"measurement": "hydroxyproline deposition in lungs", "setting": "[2]; [6]", "value": "significantly decreased hydroxyproline deposition in lungs"}, {"measurement": "infiltration of macrophages and neutrophils", "setting": "[2]; [6]", "value": "reduced infiltration of either macrophages or neutrophils"}, {"measurement": "mortality within 21 days", "setting": "[2]; severe model, bleomycin 3.75 mg/kg, CL27c could not protect", "value": 100, "unit": "%"}]}]}
